Experimental data from patent publication US9655967B2, “Inhibition of focal adhesion kinase for control of scar tissue formation” (The Board of Trustees of the Leland Stanford Junior …, priority 2011, dated 2017).

Tests used:
human fibroblasts [1] = assay: Focal adhesion formation and spreading in human fibroblasts; format: cell-based; conditions: PF573228 treatment
Source text: To substantiate the importance of these findings in human tissues, we examined FAK pathways in vitro in human fibroblasts. Following the application of strain, FAK was activated within five minutes and sustained during the static strain period (FIG. 3a-b). ERK was phosphorylated after ten minutes and its activation was critically dependent on FAK, thus recapitulating the FAK-ERK mechanotransduction axis observed in vivo. Small molecule inhibition of FAK (PF573228) was used to investigate mechanically-regulated fibroblast function during wound repair. […] Additionally, cell motility (FIG. 3c) and contraction/α-SMA expression (FIG. 3d-e) were all decreased with FAK inhibition.
Fibroblast harvest. We isolated primary dermal mouse fibroblasts after overnight incubation in trypsin (Gibco/Invitrogen, Carlsbad, Calif.) followed by 1 mg mL^−1 Liberase TL (Roche, Indianapolis, Ind.). We obtained human fibroblasts from fresh tissue specimens following IRB-approved protocols at Oregon Health and Sciences University. We incubated specimens overnight in 5 mg mL^−1 dispase (Roche) followed by 0.5 mg mL^−1 collagenase type I (Roche) and 0.2 mg mL^−1 trypsin. […]
Microscopy and immunohistochemistry. […] We processed images for publication using Adobe Photoshop CS3 (Adobe Systems Incorporated, San Jose, Calif.) and two blinded investigators performed image quantification using ImageJ (NIH, Bethesda, Md.).

human fibroblasts [2] = assay: Scratch migration assay (fibroblast motility); format: cell-based; conditions: FIG. 3c
Description: (§1) Fibroblast harvest. We isolated primary dermal mouse fibroblasts after overnight incubation in trypsin (Gibco/Invitrogen, Carlsbad, Calif.) followed by 1 mg mL^−1 Liberase TL (Roche, Indianapolis, Ind.). We obtained human fibroblasts from fresh tissue specimens following IRB-approved protocols at Oregon Health and Sciences University. We incubated specimens overnight in 5 mg mL^−1 dispase (Roche) followed by 0.5 mg mL^−1 collagenase type I (Roche) and 0.2 mg mL^−1 trypsin. We used human cells from passages four to eight.
In vitro wound healing. We assessed fibroblast motility using a scratch migration assay, Aarabi, et al. FASEB J 21, 3250-3261 (2007).

human fibroblasts [3] = assay: Fibroblast-populated 3D-collagen lattices (contraction, α-SMA expression); format: cell-based; conditions: FIG. 3d-e
Description: as §1
Fibroblast-populated collagen lattices. We performed fibroblast contraction studies as previously published, Ehrlich, Methods Mol Med 78, 277-291 (2003).
Microscopy and immunohistochemistry. We incubated paraformaldehyde-fixed cells with primary antibody (pFAK-Y397 or FAK 1:200, BD Biosciences, San Jose, Calif.) followed by AlexaFluor488-conjugated secondary antibody (Molecular Probes/Invitrogen). We performed cytoskeletal staining with phalloidin-AF488 or Cy3-conjugated antibody against α-SMA (Sigma-Aldrich). We performed H&E, picrosirius red and trichrome staining (Sigma-Aldrich) on paraffin-embedded sections. […] We processed images for publication using Adobe Photoshop CS3 (Adobe Systems Incorporated, San Jose, Calif.) and two blinded investigators performed image quantification using ImageJ (NIH, Bethesda, Md.).

[4] = tested on: cutaneous wounds in the HTS model; assay: Murine HTS model with daily intradermal injections; format: in vivo
Description: Murine HTS model. We used a murine HTS model as previously published by our group, Aarabi, et al., supra.
Microscopy and immunohistochemistry. We incubated paraformaldehyde-fixed cells with primary antibody (pFAK-Y397 or FAK 1:200, BD Biosciences, San Jose, Calif.) followed by AlexaFluor488-conjugated secondary antibody (Molecular Probes/Invitrogen). We performed cytoskeletal staining with phalloidin-AF488 or Cy3-conjugated antibody against α-SMA (Sigma-Aldrich). We performed H&E, picrosirius red and trichrome staining (Sigma-Aldrich) on paraffin-embedded sections. We used primary antibodies against FAK, MCP-1, F4/80, Ki67, and α-SMA. Immunostaining was developed with VIP, NovaRed or diaminobenzidine (Vector Laboratories, Burlingame, Calif.), or secondary fluorescent antibodies AF488 or AF594. We performed apoptotic staining using the In Situ Cell Death Detection Kit (Roche). We purchased all antibodies from Abcam Inc. (Cambridge, Mass.) unless otherwise noted. We processed images for publication using Adobe Photoshop CS3 (Adobe Systems Incorporated, San Jose, Calif.) and two blinded investigators performed image quantification using ImageJ (NIH, Bethesda, Md.).
Gene expression. We performed qPCR as previously published. We used Taqman Gene Expression Assays (Applied Biosystems, Foster City, Calif.) for in vitro qPCR.
Immunoblotting. We performed immunoblotting as previously described. We used the following antibodies: FAK (BD Biosciences), p-FAK Y397, p-FAK S732, p-ERK T202/Y204 and ERK, p-Akt S473 and Akt (Cell Signaling Technology, Inc., Danvers, Mass.), p-p38 Y182 and p38, p-JNK T183/Y185 and JNK, MCP-1 and β-actin. We obtained all antibodies from Abcam Inc. unless otherwise noted.
Intradermal injections. We administered intradermal injections (300 μL) of DMSO, 15 μM PF573228, or 150 μM PF573228 to unwounded murine skin or unloaded incisions. For HTS model experiments, we injected 15 μM PF573228 or recombinant mouse Mcp-1 (1 μg mL^−1, R&D Systems Inc.) daily between days 4 and 14 post-injury.

| Compound | formation of focal adhesions (human fibroblasts [1]) | spreading in human fibroblasts (human fibroblasts [1]) | cell motility (human fibroblasts [2]) | contraction/α-SMA expression (human fibroblasts [3]) | scar formation in vivo ([4]; 15 μM PF573228 intradermal daily, days 4 to 14 post-injury, FIG. 4a) | MCP-1-associated pathways ([4]; HTS model scars) | mechanical activation of ERK ([4]; HTS model scars) | scar matrix density ([4]; post-injury day ten scars) | attenuation of epithelial proliferation ([4]; post-injury day ten scars, p<0.001) | attenuation of epithelial thickness ([4]; post-injury day ten scars, p=0.004) | attenuation of dermal proliferation ([4]; post-injury day ten scars, p=0.01) | fibrotic phenotype in FAK-deficient wounds ([4]; FAK KO mice, intradermal Mcp-1 1 μg mL^−1 daily, FIG. 2c-f) |
| --- | --- | --- | --- | --- | --- | --- | --- | --- | --- | --- | --- | --- |
| CS(=O)(=O)c1cccc(CNc2nc(Nc3ccc4c(c3)CCC(=O)N4)ncc2C(F)(F)F)c1 [PF573228] | effectively inhibited | impaired | decreased | decreased | significantly reduced | blocked | significantly decreased | attenuated | 57% | 35% | 28% | – |
| Mcp-1: recombinant mouse Mcp-1 (monocyte chemoattractant protein-1/CCL2), R&D Systems Inc. | – | – | – | – | – | – | – | – | – | – | – | restored the fibrotic phenotype |
